Data: patent US20220153745A1, “DISUBSTITUTED BENZOTHIENYL-PYRROLOTRIAZINES AND THEIR USE AS FGFR KINASE INHIBITORS” (Bayer Intellectual Property GmbH, priority 2011, published 2022)
Counter-ions that a name gives are not always drawn.

Biological target: T1, mTOR (Homo sapiens, UniProt P42345)
T1 construct: human mTOR amino acids from 1360 to 2549; purchased Invitrogen 4753; host or cells: insect cells
Test: mTOR kinase assay (TR-FRET, for comparative purposes)
Type: biochemical
Conditions: for mTOR % inhibition @ 1 μM: mean inhibition at 1 μM test compound, 40 μM ATP; for inhibition at 1 µM: read-out: mTOR % inhibition @ 1 μM, mean inhibition at 1 μM test compound, 40 μM ATP

T1 sequence (P42345 1360-2549): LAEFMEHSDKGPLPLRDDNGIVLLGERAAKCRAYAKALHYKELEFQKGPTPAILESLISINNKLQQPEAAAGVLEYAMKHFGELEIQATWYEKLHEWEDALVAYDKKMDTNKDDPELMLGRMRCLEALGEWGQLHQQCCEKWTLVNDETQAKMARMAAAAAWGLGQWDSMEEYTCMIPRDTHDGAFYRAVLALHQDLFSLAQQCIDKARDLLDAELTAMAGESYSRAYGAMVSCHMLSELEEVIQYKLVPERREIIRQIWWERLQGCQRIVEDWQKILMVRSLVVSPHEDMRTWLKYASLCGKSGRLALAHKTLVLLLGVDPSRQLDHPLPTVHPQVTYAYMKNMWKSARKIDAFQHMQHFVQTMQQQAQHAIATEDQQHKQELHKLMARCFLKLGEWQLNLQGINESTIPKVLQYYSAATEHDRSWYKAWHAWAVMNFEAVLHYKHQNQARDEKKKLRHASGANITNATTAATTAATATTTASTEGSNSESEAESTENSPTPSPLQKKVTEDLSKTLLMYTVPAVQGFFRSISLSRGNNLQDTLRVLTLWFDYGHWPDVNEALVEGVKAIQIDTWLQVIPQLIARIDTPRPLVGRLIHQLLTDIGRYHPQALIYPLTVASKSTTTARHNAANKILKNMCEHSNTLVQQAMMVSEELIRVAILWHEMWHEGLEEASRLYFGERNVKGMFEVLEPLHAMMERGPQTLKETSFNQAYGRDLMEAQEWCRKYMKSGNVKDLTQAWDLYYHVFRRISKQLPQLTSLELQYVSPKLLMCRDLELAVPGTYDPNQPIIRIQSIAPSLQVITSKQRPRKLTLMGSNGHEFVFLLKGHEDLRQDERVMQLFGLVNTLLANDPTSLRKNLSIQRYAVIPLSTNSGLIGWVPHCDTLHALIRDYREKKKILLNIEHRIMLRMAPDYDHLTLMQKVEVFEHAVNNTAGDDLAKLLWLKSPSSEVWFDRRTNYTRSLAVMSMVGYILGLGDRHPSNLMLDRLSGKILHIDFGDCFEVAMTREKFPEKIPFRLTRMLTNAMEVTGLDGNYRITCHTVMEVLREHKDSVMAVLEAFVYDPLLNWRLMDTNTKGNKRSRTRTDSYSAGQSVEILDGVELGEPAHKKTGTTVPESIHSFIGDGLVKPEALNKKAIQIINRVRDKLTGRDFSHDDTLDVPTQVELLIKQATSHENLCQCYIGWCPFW

Compound | mTOR % inhibition @ 1 μM | inhibition at 1 µM
COc1cc(C)cc2cc(-c3c(CNCC(C)(C)O)c(C)n4ncnc(N)c34)sc12 [Example 78, 1-({[4-Amino-5-(7-methoxy-5-methyl-1-benzothiophen-2-yl)-7-methylpyrrolo[2,1-f][1,2,4]triazin-6-yl]methyl}amino)-2-methylpropan-2-ol] | 5.8% | 
CCOCc1c(-c2cc3cc(C)cc(OC)c3s2)c2c(N)ncnn2c1CN[C@@H]1CCNC1=O [Example 7, (3R)-3-({[4-Amino-6-(ethoxymethyl)-5-(7-methoxy-5-methyl-1-benzothiophen-2-yl)pyrrolo[2,1-f]-[1,2,4]triazin-7-yl]methyl}amino)pyrrolidin-2-one dihydrochloride] |  | 3.1%
CCOCc1c(-c2cc3cc(C)cc(OC)c3s2)c2c(N)ncnn2c1CN1CCNC1=O [Example 87, 1-{[4-Amino-6-(ethoxymethyl)-5-(7-methoxy-5-methyl-1-benzothiophen-2-yl)pyrrolo[2,1-f][1,2,4]-triazin-7-yl]methyl}imidazolidin-2-one] |  | 12.7%
COc1cc(C)cc2cc(-c3c(CNCC(=O)O)c(CN4CCNCC4)n4ncnc(N)c34)sc12 [Example 48, N-{[4-Amino-5-(7-methoxy-5-methyl-1-benzothiophen-2-yl)-7-(piperazin-1-ylmethyl)pyrrolo[2,1-f]-[1,2,4]triazin-6-yl]methyl}glycine trihydrochloride] |  | 4.1%
COCc1c(-c2cc3cc(C)cc(OC)c3s2)c2c(N)ncnn2c1C#N [Example 69, 4-Amino-6-(methoxymethyl)-5-(7-methoxy-5-methyl-1-benzothiophen-2-yl)pyrrolo[2,1-f][1,2,4]-triazine-7-carbonitrile] |  | 8.7%
COc1cc(C)cc2cc(-c3c(CN(C)C)c(CN4CCNCC4)n4ncnc(N)c34)sc12 [Example 37, 6-[(Dimethylamino)methyl]-5-(7-methoxy-5-methyl-1-benzothiophen-2-yl)-7-(piperazin-1-ylmethyl)pyrrolo[2,1-f][1,2,4]triazin-4-amine trihydrochloride] |  | 8.6%
CCN(CC)Cc1c(-c2cc3cc(C)cc(OC)c3s2)c2c(N)ncnn2c1CN1CCNCC1 [Example 43, 6-[(Diethylamino)methyl]-5-(7-methoxy-5-methyl-1-benzothiophen-2-yl)-7-(piperazin-1-ylmethyl)pyrrolo[2,1-f][1,2,4]triazin-4-amine trihydrochloride] |  | 10.1%
CCOCc1c(-c2cc3cc(C)cc(OC)c3s2)c2c(N)ncnn2c1CN1CCOCC1 [Example 10, 6-(Ethoxymethyl)-5-(7-methoxy-5-methyl-1-benzothiophen-2-yl)-7-(morpholin-4-ylmethyl)pyrrolo[2,1-f][1,2,4]triazin-4-amine] |  | 6%
COCc1c(-c2cc3cc(C)cc(OC)c3s2)c2c(N)ncnn2c1CN1CCNC(=O)C1 [Example 1, 4-{[4-Amino-6-(methoxymethyl)-5-(7-methoxy-5-methyl-1-benzothiophen-2-yl)pyrrolo[2,1-f]-[1,2,4]triazin-7-yl]methyl}piperazin-2-one] |  | 8.7%
COc1cc(C)cc2cc(-c3c(CNC(C)=O)c(CN4CCN(C=O)CC4)n4ncnc(N)c34)sc12 [Example 65, N-({4-Amino-7-[(4-formylpiperazin-1-yl)methyl]-5-(7-methoxy-5-methyl-1-benzothiophen-2-yl)pyrrolo[2,1-f][1,2,4]triazin-6-yl}methyl)acetamide formiate] |  | 13.9%
COc1cc(C)cc2cc(-c3c(CNCC(C)(C)O)c(Cl)n4ncnc(N)c34)sc12 [Example 82, 1-({[4-Amino-7-chloro-5-(7-methoxy-5-methyl-1-benzothiophen-2-yl)pyrrolo[2,1-f][1,2,4]triazin-6-yl]methyl}amino)-2-methylpropan-2-ol] | 7.1% | 
COCc1c(-c2cc3cc(C)cc(OC)c3s2)c2c(N)ncnn2c1CN1CCNC(=O)C1.Cl.Cl [Example 2, 4-{[4-Amino-6-(methoxymethyl)-5-(7-methoxy-5-methyl-1-benzothiophen-2-yl)pyrrolo[2,1-f][1,2,4]triazin-7-yl]methyl}piperazin-2-one dihydrochloride] | 7.2% | 
COc1cc(C)cc2cc(-c3c(COCC(=O)O)c(CN4CCNCC4)n4ncnc(N)c34)sc12 [Example 32, {[4-Amino-5-(7-methoxy-5-methyl-1-benzothiophen-2-yl)-7-(piperazin-1-ylmethyl)pyrrolo[2,1-f][1,2,4]triazin-6-yl]methoxy}acetic acid] |  | 1.6%
COc1cc(C)cc2cc(-c3c(CNC(C)=O)c(CN4CCN(C(C)=O)CC4)n4ncnc(N)c34)sc12 [Example 66, N-({7-[(4-Acetylpiperazin-1-yl)methyl]-4-amino-5-(7-methoxy-5-methyl-1-benzothiophen-2-yl)pyrrolo[2,1-f][1,2,4]triazin-6-yl}methyl)acetamide] |  | 15.8%
CCOCc1c(-c2cc3cc(C)cc(OC)c3s2)c2c(N)ncnn2c1CN[C@H]1CCNC1=O [Example 93, (3S)-3-({[4-Amino-6-(ethoxymethyl)-5-(7-methoxy-5-methyl-1-benzothiophen-2-yl)pyrrolo[2,1-f]-[1,2,4]triazin-7-yl]methyl}amino)pyrrolidin-2-one] |  | 12.5%
CCOCc1c(-c2cc3cc(C)cc(OC)c3s2)c2c(N)ncnn2c1CN1CCN(C(C)=O)CC1 [Example 20, 1-(4-{[4-Amino-6-(ethoxymethyl)-5-(7-methoxy-5-methyl-1-benzothiophen-2-yl)pyrrolo[2,1-f]-[1,2,4]triazin-7-yl]methyl}piperazin-1-yl)ethanone] |  | 31.3%
CCOCc1c(-c2cc3cc(C)cc(OC)c3s2)c2c(N)ncnn2c1CN1CCNCC1 [Example 19, 6-(Ethoxymethyl)-5-(7-methoxy-5-methyl-1-benzothiophen-2-yl)-7-(piperazin-1-ylmethyl)pyrrolo[2,1-f][1,2,4]triazin-4-amine dihydrochloride] |  | 17.6%
COc1cc(C)cc2cc(-c3c(COCC4CC4)c(CN4CCNCC4)n4ncnc(N)c34)sc12 [Example 25, 6-[(Cyclopropylmethoxy)methyl]-5-(7-methoxy-5-methyl-1-benzothiophen-2-yl)-7-(piperazin-1-ylmethyl)pyrrolo[2,1-f][1,2,4]triazin-4-amine bis(formiate)] |  | 3.5%
CCOCc1c(-c2cc3cc(C)cc(OC)c3s2)c2c(N)ncnn2c1CN[C@@H]1CCNC1=O [Example 8, (3R)-3-({[4-Amino-6-(ethoxymethyl)-5-(7-methoxy-5-methyl-1-benzothiophen-2-yl)pyrrolo[2,1-f]-[1,2,4]triazin-7-yl]methyl}amino)pyrrolidin-2-one] |  | 7.8%
COCc1c(-c2cc3cc(C)cc(OC)c3s2)c2c(N)ncnn2c1CN1CCNCC1 [Example 17, 6-(Methoxymethyl)-5-(7-methoxy-5-methyl-1-benzothiophen-2-yl)-7-(piperazin-1-ylmethyl)pyrrolo[2,1-f][1,2,4]triazin-4-amine formiate] |  | 6.7%
CCOCc1c(-c2cc3cc(C)cc(OC)c3s2)c2c(N)ncnn2c1CN1CCNC(=O)C1 [Example 5, 4-{[4-Amino-6-(ethoxymethyl)-5-(7-methoxy-5-methyl-1-benzothiophen-2-yl)pyrrolo[2,1-f][1,2,4]-triazin-7-yl]methyl}piperazin-2-one] |  | 9.7%
CNCc1c(-c2cc3cc(C)cc(OC)c3s2)c2c(N)ncnn2c1CN1CCNCC1 [Example 36, 5-(7-Methoxy-5-methyl-1-benzothiophen-2-yl)-6-[(methylamino)methyl]-7-(piperazin-1-ylmethyl)pyrrolo[2,1-f][1,2,4]triazin-4-amine trihydrochloride] |  | 14.4%
CCOCc1c(-c2cc3cc(C)cc(OC)c3s2)c2c(N)ncnn2c1C(=O)NCCO [Example 108] |  | 8.5%
CCOCc1c(-c2cc3cc(C)cc(OC)c3s2)c2c(N)ncnn2c1Cl [Example 83, 7-Chloro-6-(ethoxymethyl)-5-(7-methoxy-5-methyl-1-benzothiophen-2-yl)pyrrolo[2,1-f][1,2,4]-triazin-4-amine] |  | 6.3%
COc1cc(C)cc2cc(-c3c(Cl)c(CN4CCNCC4)n4ncnc(N)c34)sc12 [Example 85, 6-Chloro-5-(7-methoxy-5-methyl-1-benzothiophen-2-yl)-7-(piperazin-1-ylmethyl)pyrrolo[2,1-f]-[1,2,4]triazin-4-amine trihydrochloride] |  | 0.9%
COc1cc(C)cc2cc(-c3c(COCC(N)=O)c(CN4CCNCC4)n4ncnc(N)c34)sc12 [Example 33, 2-{[4-Amino-5-(7-methoxy-5-methyl-1-benzothiophen-2-yl)-7-(piperazin-1-ylmethyl)pyrrolo[2,1-f][1,2,4]triazin-6-yl]methoxy}acetamide] |  | 0.9%
COC(=O)COCc1c(-c2cc3cc(C)cc(OC)c3s2)c2c(N)ncnn2c1CN1CCNCC1 [Example 31, Methyl {[4-amino-5-(7-methoxy-5-methyl-1-benzothiophen-2-yl)-7-(piperazin-1-ylmethyl)pyrrolo[2,1-f][1,2,4]triazin-6-yl]methoxy}acetate] |  | 16.3%
COc1cc(C)cc2cc(-c3c(CN4CCNC(=O)C4)c(Cl)n4ncnc(N)c34)sc12 [Example 80, 4-{[4-Amino-7-chloro-5-(7-methoxy-5-methyl-1-benzothiophen-2-yl)pyrrolo[2,1-f][1,2,4]triazin-6-yl]methyl}piperazin-2-one] |  | 3.9%
CCOCc1c(-c2cc3cc(C)cc(OC)c3s2)c2c(N)ncnn2c1C#N [Example 70, 4-Amino-6-(ethoxymethyl)-5-(7-methoxy-5-methyl-1-benzothiophen-2-yl)pyrrolo[2,1-f][1,2,4]-triazine-7-carbonitrile] |  | 5.8%
CCOCc1c(-c2cc3cc(C)cc(OC)c3s2)c2c(N)ncnn2c1CN1CCNC(=O)C1 [Example 6, 4-{[4-Amino-6-(ethoxymethyl)-5-(7-methoxy-5-methyl-1-benzothiophen-2-yl)pyrrolo[2,1-f][1,2,4]-triazin-7-yl]methyl}piperazin-2-one dihydrochloride] |  | 0.3%
